Here are results for twelve compounds from PMC12855270, “Exceptionally selective voltage-sensor trapping of NaV1.5 channels by Mg-protoporphyrin impairs cancer cell migration” (Scientific Reports, 2026).

Data set [1] has as its target T1, human NaV1.5 (hNaV1.5) (Homo sapiens, UniProt Q14524). The settings on record: for effect on hNaV1.5 current / remaining peak inward current: 1 µM extracellular, 5 min, -30 mV; for IC50: read-out: IC50 of hNaV1.5 current inhibition (Hill fit, constrained), current after 5 min, Hill coefficient constrained to 1 and remaining current to zero.
The target in data set [2] is T2, human BKCa channel (KCa1.1, KCNMA1) (Homo sapiens, UniProt Q12791).
T2 construct: expressed in transfected cells; host or cells: HEK293T
As to the kind of experiment: BKCa currents in inside-out patches (HEK293T). The data set is classed as biochemical. The settings on record: 1 µM to intracellular side, 1 µM free Ca2+, 80 mV. From the text:
The coding sequence of human NaV1.5 (hNaV1.5, SCN5A, Acc. no. M77235) was inserted into pRC/CMV vector plasmids and expressed in HEK293T cells as described previously. The following NaV constructs were used in a similar manner: mNaV1.5 (mouse, AJ271477.1), hNaV1.2 (NM001040143), hNaV1.4 (AAO83647), hNaV1.7 (NP002968), and hNaV1.8 (Q9Y5Y9.2). The neonatal splice variant of hNaV1.5 (nhNaV1.5) was used as described by Schroeter et al.[45]. Recombinant DNAs for all NaV subgroups were engineered using PCR-based methods and verified by DNA sequencing. For the functional evaluation of BKCa channels (KCa1.1), we used human KCNMA1 (Acc. no. U11058).
Cells were transfected with the channel-coding plasmids using ROTI®Fect (Carl Roth, Karlsruhe, Germany). Visualization of transfected cells was achieved by co-expressing green fluorescent protein or in the case of BKCa channels, CD8 + with subsequent use of anti-CD8 coated microbeads. Neuro-2A cells were utilized for the expression of hNaV1.8 channels; all other constructs were expressed in HEK293T cells. Ionic currents were recorded 1–2 days after transfection.
Currents of BKCa channels were measured in inside-out patches after expression in HEK293T cells, using an EPC10 amplifier (HEKA Elektronik) and PACHMASTER NEXT acquisition software (Multi-Channel Systems GmbH, MCS, Reutlingen, Germany). The holding voltage was -90 mV, and currents were recorded for depolarization steps up to 80 mV. Pipettes with resistances of 1.8–2.5 MΩ were used. The extracellular (pipette) solution contained (in mM): 138 NaCl, 4 KCl, 2 CaCl2, 2 MgCl2, and 10 HEPES, pH 7.4 (NaOH); the intracellular (bath) solution with about 1 µM free Ca^2+ contained: 135 KCl, 8.63 CaCl2, 2 MgCl2, 10 EGTA, and 10 HEPES, pH 7.4 (KOH).
All recordings were obtained at room temperature (20–23 °C). Metal protoporphyrins, diluted from stock solutions in DMSO, were applied by adding 1/3 of the final bath volume and mixing. Transmission and fluorescence light sources were turned off during data acquisition.

Data set [3] concerns MDA-MB-231 cells. Briefly: wound-healing assay, MDA-MB-231. The data set is classed as cell-based, human. The note with it: for gap closure (cell migration) in wound-healing assay: 100 nM, 4 h, 2% FBS, MDA-MB-231.
Data set [4] has as its system SW-48 cells. As to the kind of experiment: wound-healing assay, SW-48. It is filed as cell-based, human. How it is done: (§1) Human embryonic kidney 293 T cells (HEK293T, from CAMR; Porton Down, Salisbury, UK) were cultured in Dulbecco’s Modified Eagle’s Medium (DMEM) with Nutrient Mixture F-12 (Gibco). Mouse neuroblastoma cells (Neuro-2A, German Collection of Microorganisms and Cell Cultures, DSMZ, Braunschweig, Germany) were cultured in DMEM. The breast cancer cell lines MDA-MB-231 (DSMZ) and T-47D (American Type Culture Collection, ATCC) were cultured in RPMI 1640 medium (Sigma, R7388), while the colorectal cancer cell lines SW-480 (DSMZ) and SW-48 (ATCC) were maintained in DMEM. Media were supplemented with 10% FBS, and the cells were incubated at 37 °C in a humidified atmosphere containing 5% or 10% (Neuro-2A) CO2.
(§2) Cells (50,000 to 70,000 per well) were seeded in a 48-well plate (Greiner Bio-One, Frickenhausen, Germany) and cultured for one day in their respective culture media supplemented with 10% FBS. Upon achieving approximately 90% confluency, a 200 µl sterile pipette tip was used to create a linear scratch (wound) in each well. Subsequently, the cells were rinsed with phosphate-buffered saline (PBS) and the medium was replaced with the same formulation containing only 2% FBS to minimize cell proliferation and to emphasize cell migration. […] Images were analyzed with ImageJ (NIH, Bethesda, MD, USA) using the “wound_healing_size_tool_updated” plugin[46] to quantify wound areas.

Data set [5] has as its system SW-480 cells. Briefly: wound-healing assay, SW-480. The data set is classed as cell-based, human. How it is done:
as §1, §2

The target in data set [6] is endogenous NaV-channel current in MDA-MB-231 cells (Homo sapiens, UniProt Q14524). Briefly: whole-cell patch-clamp of endogenous NaV-channel current in MDA-MB-231 cells. The data set is classed as cell-based. (In general: In patch-clamp work, channel activity is measured electrically.)
Data set [7] concerns the target T1, human NaV1.5 (hNaV1.5). The settings on record: cited from earlier work.
For data set [8], the system named is xenografted NaV1.5-expressing human breast cancer cells. The settings on record: mouse xenograft model; cited from earlier work.
The target in data set [9] is T2, human BKCa channel (KCa1.1, KCNMA1). The note with it: applied to the intracellular side; cited from earlier work.

Where two headings read alike, the source gives them in different places.

T1 sequence (Q14524 whole entry): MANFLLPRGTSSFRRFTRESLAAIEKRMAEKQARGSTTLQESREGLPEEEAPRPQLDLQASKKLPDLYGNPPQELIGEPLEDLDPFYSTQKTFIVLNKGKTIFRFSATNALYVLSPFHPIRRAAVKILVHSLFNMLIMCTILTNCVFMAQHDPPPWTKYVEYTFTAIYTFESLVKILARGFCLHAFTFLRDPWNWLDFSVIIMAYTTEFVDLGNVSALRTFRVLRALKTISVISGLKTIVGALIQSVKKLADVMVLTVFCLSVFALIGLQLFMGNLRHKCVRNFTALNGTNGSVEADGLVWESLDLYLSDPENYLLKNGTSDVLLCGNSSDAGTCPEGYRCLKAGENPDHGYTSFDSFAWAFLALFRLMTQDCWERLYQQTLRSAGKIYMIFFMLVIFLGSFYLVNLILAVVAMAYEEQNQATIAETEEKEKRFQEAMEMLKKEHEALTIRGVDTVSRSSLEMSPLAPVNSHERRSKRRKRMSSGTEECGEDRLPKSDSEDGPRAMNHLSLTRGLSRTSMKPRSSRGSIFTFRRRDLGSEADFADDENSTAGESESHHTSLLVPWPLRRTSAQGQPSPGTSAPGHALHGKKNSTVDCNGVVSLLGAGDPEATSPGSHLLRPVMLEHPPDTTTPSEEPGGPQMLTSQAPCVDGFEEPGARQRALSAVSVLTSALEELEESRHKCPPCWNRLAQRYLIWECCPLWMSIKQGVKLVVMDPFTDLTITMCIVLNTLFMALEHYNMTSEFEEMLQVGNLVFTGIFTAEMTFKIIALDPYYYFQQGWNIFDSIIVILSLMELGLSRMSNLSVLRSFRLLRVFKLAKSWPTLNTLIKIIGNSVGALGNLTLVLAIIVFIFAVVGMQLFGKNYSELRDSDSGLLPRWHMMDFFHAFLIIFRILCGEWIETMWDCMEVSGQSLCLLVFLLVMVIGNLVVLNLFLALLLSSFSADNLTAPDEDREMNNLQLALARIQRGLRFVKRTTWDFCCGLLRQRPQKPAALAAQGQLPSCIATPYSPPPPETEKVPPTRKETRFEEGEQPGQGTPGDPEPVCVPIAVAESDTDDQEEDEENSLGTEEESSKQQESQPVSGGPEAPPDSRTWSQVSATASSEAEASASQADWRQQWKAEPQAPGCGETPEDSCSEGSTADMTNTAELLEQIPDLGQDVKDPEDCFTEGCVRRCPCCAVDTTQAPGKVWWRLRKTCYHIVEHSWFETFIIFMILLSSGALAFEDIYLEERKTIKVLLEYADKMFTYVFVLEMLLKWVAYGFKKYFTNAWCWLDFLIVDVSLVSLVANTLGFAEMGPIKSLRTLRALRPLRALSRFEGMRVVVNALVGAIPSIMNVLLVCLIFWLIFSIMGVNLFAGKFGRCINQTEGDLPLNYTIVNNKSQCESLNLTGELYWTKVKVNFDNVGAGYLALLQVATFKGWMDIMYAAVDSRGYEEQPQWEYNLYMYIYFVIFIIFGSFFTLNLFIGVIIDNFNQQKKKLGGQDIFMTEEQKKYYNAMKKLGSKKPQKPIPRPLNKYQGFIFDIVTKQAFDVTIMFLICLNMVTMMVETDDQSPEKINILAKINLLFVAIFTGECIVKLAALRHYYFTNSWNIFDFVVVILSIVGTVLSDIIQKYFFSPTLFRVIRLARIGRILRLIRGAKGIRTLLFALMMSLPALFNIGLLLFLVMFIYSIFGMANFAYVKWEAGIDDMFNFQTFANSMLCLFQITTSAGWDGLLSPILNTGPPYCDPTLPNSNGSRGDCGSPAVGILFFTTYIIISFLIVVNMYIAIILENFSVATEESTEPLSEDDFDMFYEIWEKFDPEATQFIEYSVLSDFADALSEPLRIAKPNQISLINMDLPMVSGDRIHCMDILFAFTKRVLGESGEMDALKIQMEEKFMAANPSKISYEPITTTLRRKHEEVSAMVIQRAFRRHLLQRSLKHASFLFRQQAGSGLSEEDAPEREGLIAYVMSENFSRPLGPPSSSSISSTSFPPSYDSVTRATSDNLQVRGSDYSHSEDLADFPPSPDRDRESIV
T2 sequence (Q12791 1-1178 isoform Q12791-5): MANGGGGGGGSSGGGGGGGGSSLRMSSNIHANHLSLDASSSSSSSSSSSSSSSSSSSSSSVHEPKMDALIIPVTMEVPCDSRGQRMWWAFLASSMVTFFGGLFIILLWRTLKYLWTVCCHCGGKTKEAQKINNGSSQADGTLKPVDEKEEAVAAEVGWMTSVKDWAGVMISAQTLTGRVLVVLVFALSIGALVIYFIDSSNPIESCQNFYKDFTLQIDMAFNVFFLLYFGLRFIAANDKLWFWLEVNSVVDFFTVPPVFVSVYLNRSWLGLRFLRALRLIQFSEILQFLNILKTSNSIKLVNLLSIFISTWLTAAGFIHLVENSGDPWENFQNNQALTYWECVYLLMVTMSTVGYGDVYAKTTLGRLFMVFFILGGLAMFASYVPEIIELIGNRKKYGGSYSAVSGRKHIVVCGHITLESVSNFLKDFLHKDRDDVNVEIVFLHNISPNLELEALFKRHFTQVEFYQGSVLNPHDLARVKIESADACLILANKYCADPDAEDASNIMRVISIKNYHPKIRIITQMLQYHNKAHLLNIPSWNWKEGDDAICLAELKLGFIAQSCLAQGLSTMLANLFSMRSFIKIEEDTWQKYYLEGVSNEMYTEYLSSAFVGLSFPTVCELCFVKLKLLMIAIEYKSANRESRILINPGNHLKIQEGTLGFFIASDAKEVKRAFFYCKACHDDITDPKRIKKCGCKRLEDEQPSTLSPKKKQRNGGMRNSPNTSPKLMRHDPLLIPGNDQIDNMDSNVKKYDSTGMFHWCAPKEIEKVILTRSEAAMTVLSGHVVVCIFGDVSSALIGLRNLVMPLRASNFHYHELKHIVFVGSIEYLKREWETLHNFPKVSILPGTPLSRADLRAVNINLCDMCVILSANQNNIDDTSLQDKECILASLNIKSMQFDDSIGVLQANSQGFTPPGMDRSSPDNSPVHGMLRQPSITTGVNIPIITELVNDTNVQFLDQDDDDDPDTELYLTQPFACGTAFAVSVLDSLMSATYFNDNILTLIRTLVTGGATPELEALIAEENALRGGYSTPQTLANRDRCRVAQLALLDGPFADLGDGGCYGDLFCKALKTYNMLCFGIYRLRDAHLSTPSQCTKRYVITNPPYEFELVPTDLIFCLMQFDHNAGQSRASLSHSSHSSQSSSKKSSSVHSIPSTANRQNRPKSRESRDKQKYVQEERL
endogenous NaV-channel current in MDA-MB-231 cells, sequence (Q14524 711-950): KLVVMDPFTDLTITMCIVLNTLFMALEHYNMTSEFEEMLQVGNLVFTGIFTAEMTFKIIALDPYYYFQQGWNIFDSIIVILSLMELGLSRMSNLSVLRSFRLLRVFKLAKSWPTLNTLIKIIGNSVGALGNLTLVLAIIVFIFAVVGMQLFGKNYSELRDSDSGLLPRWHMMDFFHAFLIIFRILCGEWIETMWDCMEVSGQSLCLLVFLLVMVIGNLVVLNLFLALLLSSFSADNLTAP

Regarding `C=Cc1c(C)c2cc3nc(c4c5[n-]c(cc6nc(cc1[n-]2)C(C)=C6CC)c(C)c5C(=O)[C@@H]4C(=O)OC)[C@@H](CCC(=O)OC/C=C(\C)CCC[C@H](C)CCC[C@H](C)CCCC(C)C)[C@@H]3C.[Mg+2]` [Chlorophyll-A, reference compound], the “effect on hNaV1.5 current” value in data set [1] was “no detectable effect”.
For `C=CC1=C(C)c2cc3[n-]c(cc4[n-]c(cc5nc(cc1n2)C(C)=C5C=C)c(C)c4CCC(=O)O)c(CCC(=O)O)c3C.[Cu+2]` [CuPpIX, copper-PpIX], the figures for the “effect on hNaV1.5 current” value in data set [1] and in data set [1] (listed as Cu(II)PpIX) were “failed to affect the current” and “completely ineffective”, respectively.
As usually defined, the IC50 is the concentration needed to halve the response being measured. `C=CC1=C(C)C2=Cc3c(C=C)c(C)c4[n]3[Ga][n]3c(c(C)c(CCC(=O)O)c3=CC3=NC(=C4)C(C)=C3CCC(=O)O)=CC1=N2` [GaPpIX, gallium-PpIX]: the “effect on BKCa current” value in data set [2] is listed as “did not block BKCa channels”. Besides, in data set [1], the “remaining peak inward current” value is given as “about 10%” and the IC50 came out at 0.117 ± 0.008 µM. Also, in data set [3], the “gap closure (cell migration) in wound-healing assay” value (shortened to “gap closure (cell migration)”) is reported as “diminished gap closure, albeit less potently than MgPpIX”.
`C=CC1=C(C)c2cc3[n-]c(cc4[n-]c(cc5nc(cc1n2)C(C)=C5C=C)c(C)c4CCC(=O)[O-])c(CCC(=O)[O-])c3C.[H+].[H+].[Mn+2]` [MnPpIX, manganese-PpIX]: in data set [1], the “effect on hNaV1.5 current” value is “slightly less potent than hemin” and the IC50 was found to be 0.672 ± 0.018 µM.
With `C=CC1=C(C)c2cc3[n-]c(cc4[n-]c(cc5nc(cc1n2)C(C)=C5C=C)c(C)c4CCC(=O)[O-])c(CCC(=O)[O-])c3C.[H+].[H+].[Ni+2]` [NiPpIX, nickel-PpIX], in data set [2], the “effect on BKCa current” value is reported as “did not block BKCa channels”. The “effect on hNaV1.5 current” value in data set [1] is “failed to affect the current”; in data set [1] (listed as Ni(II)PpIX), “completely ineffective”. For the same compound, the “gap closure (cell migration)” value in data set [3] is recorded as “failed to influence gap closure”.
Turning to `C=CC1=C(C)c2cc3[nH]c(cc4nc(cc5[nH]c(cc1n2)c(C)c5CCC(=O)O)C(CCC(=O)O)=C4C)c(C)c3C=C` [PpIX, Protoporphyrin IX, reference compound], the “cell migration in wound-healing assay” value in [4] and in data set [5] was “neither SnPpIX nor PpIX had any impact” in each case. The “gap closure (cell migration)” value in data set [3] was “failed to influence gap closure”.
`NC1=N[C@H](O)[C@H]2[C@H]3O[C@]4(O)O[C@@H]([C@@H](O)[C@@]2(N1)[C@@H]4O)[C@]3(O)CO` [TTX, tetrodotoxin, reference compound]: the “remaining endogenous NaV-channel current” value in data set [6] is 3.5 ± 0.5%. The “gap closure in wound-healing assay” value in [3] is “only a weak effect”.
As for `C=CC1=C(C)c2cc3[n-]c(cc4nc(cc5[n-]c(cc1n2)c(C)c5C=C)C(C)=C4CCC(=O)O)c(CCC(=O)O)c3C.[Zn+2]` [ZnPpIX, zinc-PpIX], the “effect on BKCa current” value in data set [2] is given as “minor effect”. In addition, in data set [1], the “remaining peak inward current” value was “about 10%” and the IC50 came to 0.106 ± 0.011 µM. In data set [3], the “gap closure (cell migration)” value was “diminished gap closure, albeit less potently than MgPpIX”.
In the case of `C=CC1=C(C)c2cc3[n-]c(cc4[n-]c(cc5nc(cc1n2)C(C)=C5C=C)c(C)c4CCC(=O)O)c(CCC(=O)O)c3C.[Fe+2]` [heme, reference compound], the “impact on hNaV1.5 channels” value in data set [7] was “no impact”.
As for `COc1ccccc1OCC(O)CN1CCN(CC(=O)Nc2c(C)cccc2C)CC1` (stereo not drawn) [ranolazine], in data set [8], the “lung colonization by the cancer cells” value is given as “reduced lung colonization by the cancer cells” and the tolerability result is “well-tolerated”.
As for Fe^3+-protoporphyrin IX [hemin], in data set [9], the “effect on BKCa channel” value is recorded as “effectively inhibited”. Besides, the IC50 in data set [7] (read-out: apparent half-inhibitory constant (IC50) for hNaV1.5-mediated Na+ current, extracellularly applied) is approximately 0.1 µM. In addition, in data set [1], the “remaining peak inward current” value is reported as ~ 20% and the IC50 amounted to 0.231 ± 0.018 µM. The “reestablishment of inhibition, times slower than MgPpIX” value in [1] (hNaV1.5, after prepulse-induced reversal) was “about 8 times”. In data set [3], the “gap closure (cell migration)” value is given as “diminished gap closure, albeit less potently than MgPpIX”.
tin-PpIX [SnPpIX]: the results for the “effect on hNaV1.5 current” value in [1] and in data set [1] (listed as Sn(IV)PpIX) were “failed to affect the current” and “completely ineffective”, respectively. Also, the “cell migration in wound-healing assay” value in data set [4] and in data set [5] was “neither SnPpIX nor PpIX had any impact” each time. Moreover, in [3], the “gap closure (cell migration)” value is “failed to influence gap closure”.
